In publication PMC5808105, “Sublingual Administration of Sildenafil Oro-dispersible Film: New Profiles of Drug Tolerability and Pharmacokinetics for PDE5 Inhibitors” (Frontiers in Pharmacology, 2018):

What was measured:
[1] = Trans-mucosal permeation test (vertical diffusion system); format: in vitro ADME; conditions: HBSS, donor-receiver chambers, 0-40 min; equivalent to 50 mg Sild; result in words
Method: Trans-mucosal permeation profile of Sild was evaluated in vitro by using a specific device according to [Delvadia et al. (2012)] appropriately modified. Briefly, the device consisted in a vertical diffusion system featured by donor–receiver chambers separated by a disposable cellulose–acetate membrane (pore 0.45 μm). The donor cell contained 1.5 ml of HBSS, whereas the receiver chamber was part of a closed recirculation circuit of 30 ml including the volumes of tubing and reservoir. Sampling was performed from receiver chamber reservoir at the time intervals of 0, 5, 10, 20, 30, and 40 min and replaced by an equivalent volume of fresh HBSS. The samples were analyzed by HPLC-UV for drug content ([Fejős et al., 2014]). Data were normalized on the highest permeated Sild concentration observed for pure Sild citrate. Tests were performed in triplicate and results were reported as mean value ± standard deviation.

[2] = cited from earlier work
[3] = design: method as in Zayed et al., 2012; Sun et al., 2014; conditions: result in words; ref Zayed et al., 2012; Sun et al., 2014; cited from earlier work

Compound: CCCc1nn(C)c2c(=O)[nH]c(-c3cc(S(=O)(=O)N4CCN(C)CC4)ccc3OCC)nc12.O=C(O)CC(O)(CC(=O)O)C(=O)O [Sild citrate]
- permeation of Sild through cellulose acetate membrane [1]: free and fast diffusion between the two chambers

Compound: CCCc1nn(C)c2c(=O)[nH]c(-c3cc(S(=O)(=O)N4CCN(C)CC4)ccc3OCC)nc12 [Sild, Sildenafil]
- time to peak plasma concentration ([2]; after oral administration, ref Gupta et al., 2005): 0.5 to 2 h
- oral bioavailability ([2]; ref Gupta et al., 2005): 38–41%
- water solubility [3]: low water solubility

Compound: CCCc1nc(C)c2c(=O)[nH]c(-c3cc(S(=O)(=O)N4CCN(CC)CC4)ccc3OCC)nn12 [Vardenafil]
- bioavailability ([2]; ref Center for Drug Evaluation and Research, 2003): ~15%
